Measurements reported in patent US8399674B2, “Quinolines” (Hoffman-La Roche Inc., priority 2007, dated 2013).

Columns and labels:
[1] = molecular target: T1, recombinant human 5-HT5A receptor (Homo sapiens, UniProt P47898); assay: [3H]LSD radioligand binding assay, membranes of HEK-EBNA cells transiently expressing the receptor; settings: [3H]LSD approx. 1 nM, 120 min room temperature, Ki from IC50 by Cheng-Prussoff equation, read-out: Ki (affinity towards the human 5-HT5A receptor)
T1 construct: expressed in transfected cells; host or cells: HEK-EBNA (Human Embryonic Kidney-EBNA) cells, transient transfection; membranes
Experimental: A [^3H] LSD radioligand binding assay was used to determine the affinity of the compounds for the recombinant human 5-HT5A receptor, in membranes from transiently (cDNA) expressed 5-HT5A receptors in Human Embryonic Kidney-EBNA (HEK-EBNA) cells.
Assay buffer consisted of Tris (50 mM) buffer containing 1 mM EGTA, 10 mM MgCl2 (pH 7.4) and 10 μM pargyline. The binding assay was carried out in 96-well-plates in the presence of [^3H]LSD (approximately 1 nM), approximately 2 μg/well of membrane protein, and 0.5 mg of Ysi-poly-1-lysine SPA beads in a final volume of 200 μl of buffer. Non-specific binding was defined using methiothepin 2 μM. Compounds were tested at 10 concentrations. All assays were conducted in duplicate and repeated at least two times. Assay plates were incubated for 120 min at room temperature before centrifugation. Bound ligand was determined using a Packard Topcount scintillation counter. IC50 values were calculated using a non-linear curve fitting program and Ki values calculated using the Cheng-Prussoff equation.

T1 sequence (P47898 whole entry): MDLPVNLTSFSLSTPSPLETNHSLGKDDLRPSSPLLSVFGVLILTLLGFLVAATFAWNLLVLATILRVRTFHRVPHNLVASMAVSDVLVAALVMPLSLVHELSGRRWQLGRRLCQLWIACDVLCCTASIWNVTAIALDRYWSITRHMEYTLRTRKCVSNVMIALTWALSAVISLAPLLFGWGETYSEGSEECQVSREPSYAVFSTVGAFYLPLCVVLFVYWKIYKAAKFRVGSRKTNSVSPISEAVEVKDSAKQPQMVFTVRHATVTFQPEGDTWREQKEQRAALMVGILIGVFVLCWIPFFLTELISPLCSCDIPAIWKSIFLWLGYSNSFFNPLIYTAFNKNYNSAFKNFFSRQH

Cc1ccc(CNc2cc(N)c3cc(NCc4ccccc4)ccc3n2)o1 [Example 55, N6-Benzyl-N2-(5-methyl-furan-2-ylmethyl)-quinoline-2,4,6-triamine]
Ki [1]: 22 nM

COc1cccc(CNc2ccc3cc(NCc4cccnc4)ccc3n2)c1 [Example 57, N2-(3-Methoxy-benzyl)-N6-pyridin-3-ylmethyl-quinoline-2,6-diamine]
Ki [1]: 37 nM

c1cncc(CNc2ccc3nc(NCc4cccc5c4OCO5)ccc3c2)c1 [Example 73, N2-Benzo[1,3]dioxol-4-ylmethyl-N6-pyridin-3-ylmethyl-quinoline-2,6-diamine]
Ki [1]: 27 nM

COc1ccccc1CNC(=O)c1ccc2nc(NCc3ccccc3OC)ccc2c1 [Example 76, 2-(2-Methoxy-benzylamino)-quinoline-6-carboxylic acid 2-methoxy-benzylamide]
melting point: 217 °C

COc1ccc(NC(=O)Nc2ccc3nc(NCc4ccccc4OC)ccc3c2)cc1 [Example 79, 1-[2-(2-Methoxy-benzylamino)-quinolin-6-yl]-3-(4-methoxy-phenyl)-urea]
Ki [1]: 30 nM

COc1ccc(OC(=O)Nc2ccc3nc(NCc4ccccc4OC)ccc3c2)cc1 [Example 80, [2-(2-Methoxy-benzylamino)-quinolin-6-yl]-carbamic acid 4-methoxy-phenyl ester]
Ki [1]: 87 nM

COc1ccccc1CNc1ccc2cc(NS(=O)(=O)Nc3ccc(F)cc3)ccc2n1 [Example 81, N-(4-fluorophenyl)-N′-{2-[(2-methoxybenzyl)amino]quinolin-6-yl}sulfamide]
Ki [1]: 40 nM

COc1ccccc1CNc1ccc2cc(Nc3ncccn3)ccc2n1 [Example 84, N2-(2-Methoxy-benzyl)-N6-pyrimidin-2-yl-quinoline-2,6-diamine]
melting point: 175 °C

COc1ccccc1CNc1ccc2cc(Nc3nnc(C)o3)ccc2n1 [Example 85, N2-(2-Methoxy-benzyl)-N6-(5-methyl-[1,3,4]oxadiazol-2-yl)-quinoline-2,6-diamine]
melting point: 183 °C

COc1ccccc1CNc1ccc2cc(Nc3nc(C)no3)ccc2n1 [Example 86, N2-(2-Methoxy-benzyl)-N6-(3-methyl-[1,2,4]oxadiazol-5-yl)-quinoline-2,6-diamine]
melting point: 175 °C

CCn1nnc(Nc2ccc3nc(NCc4ccccc4OC)ccc3c2)n1 [Example 87, N6-(2-Ethyl-2H-tetrazol-5-yl)-N2-(2-methoxy-benzyl)-quinoline-2,6-diamine]
Ki [1]: 44 nM
melting point: 190 °C

COc1ccccc1CNc1ccc2cc(Nc3cc(C)on3)ccc2n1 [Example 88, N2-(2-Methoxy-benzyl)-N6-(5-methyl-isoxazol-3-yl)-quinoline-2,6-diamine]
Ki [1]: 26 nM
melting point: 132 °C

COc1ccccc1CNc1ccc2cc(Nc3nc(C)cc(C)n3)ccc2n1 [Example 89, N6-(4,6-Dimethyl-pyrimidin-2-yl)-N2-(2-methoxy-benzyl)-quinoline-2,6-diamine]
melting point: 157.5 °C

COc1ccccc1CNc1ccc2cc(Nc3nccc(C)n3)ccc2n1 [Example 90, N2-(2-Methoxy-benzyl)-N6-(4-methyl-pyrimidin-2-yl)-quinoline-2,6-diamine]
Ki [1]: 33 nM
melting point: 125 °C

COc1ccccc1CNc1ccc2cc(Nc3ncccc3C)ccc2n1 [Example 91, N2-(2-Methoxy-benzyl)-N6-(3-methyl-pyridin-2-yl)-quinoline-2,6-diamine]
melting point: 163 °C

COc1ccccc1CNc1ccc2cc(Nc3ccccn3)ccc2n1 [Example 92, N2-(2-Methoxy-benzyl)-N6-pyridin-2-yl-quinoline-2,6-diamine]
Ki [1]: 34 nM
melting point: 134 °C

COc1ccccc1CNc1ccc2cc(Nc3cccc(C)n3)ccc2n1 [Example 93, N2-(2-Methoxy-benzyl)-N6-(6-methyl-pyridin-2-yl)-quinoline-2,6-diamine]
melting point: 134 °C

COc1ccccc1CNc1ccc2cc(Nc3nccc(C(F)(F)F)n3)ccc2n1 [Example 94, N2-(2-Methoxy-benzyl)-N6-(4-trifluoromethyl-pyrimidin-2-yl)-quinoline-2,6-diamine]
Ki [1]: 30 nM
melting point: 114 °C

COc1ccccc1CNc1ccc2cc(Nc3nnn(C(C)(C)C)n3)ccc2n1 [Example 95, N6-(2-tert-Butyl-2H-tetrazol-5-yl)-N2-(2-methoxy-benzyl)-quinoline-2,6-diamine]
melting point: 156 °C

COc1ccccc1CNc1ccc2cc(Nc3nnc(C4CC4)o3)ccc2n1 [Example 96, N6-(5-Cyclopropyl-[1,3,4]oxadiazol-2-yl)-N2-(2-methoxy-benzyl)-quinoline-2,6-diamine]
Ki [1]: 47 nM
melting point: 199 °C

COc1ccccc1CNc1ccc2cc(Nc3nnc(C(F)(F)F)o3)ccc2n1 [Example 97, N2-(2-Methoxy-benzyl)-N6-(5-trifluoromethyl-[1,3,4]oxadiazol-2-yl)-quinoline-2,6-diamine]
melting point: 198 °C

COc1ccccc1CNc1ccc2cc(Nc3nc(C(F)(F)F)co3)ccc2n1 [Example 98, N2-(2-Methoxy-benzyl)-N6-(4-trifluoromethyl-oxazol-2-yl)-quinoline-2,6-diamine]
melting point: 144 °C

COc1ccccc1CNc1ccc2cc(Nc3ncc(C(F)(F)F)o3)ccc2n1 [Example 99, N2-(2-Methoxy-benzyl)-N6-(5-trifluoromethyl-oxazol-2-yl)-quinoline-2,6-diamine]
melting point: 166 °C

COc1ccccc1CNc1ccc2cc(Nc3ncco3)ccc2n1 [Example 100, N2-(2-Methoxy-benzyl)-N6-oxazol-2-yl-quinoline-2,6-diamine]
melting point: 205 °C

COc1ccccc1CNc1ccc2cc(Nc3cccc(C(F)(F)F)n3)ccc2n1 [Example 101, N2-(2-Methoxy-benzyl)-N6-(6-trifluoromethyl-pyridin-2-yl)-quinoline-2,6-diamine]
melting point: 151 °C

COc1ccccc1CNc1ccc2cc(Nc3nc4cc(C)ccc4o3)ccc2n1 [Example 102, N2-(2-Methoxy-benzyl)-N6-(5-methyl-benzooxazol-2-yl)-quinoline-2,6-diamine]
melting point: 220 °C

COc1ccccc1CNc1ccc2cc(Nc3cccc(CCO)c3)ccc2n1 [Example 103, 2-{3-[2-(2-Methoxy-benzylamino)-quinolin-6-ylamino]-phenyl}-ethanol]
Ki [1]: 25 nM
